Laboratory results published in patent US8685720B2, “Engineered cellular pathways for programmed autoregulation of differentiation” (The Trustees of Princeton University, priority 2006, dated 2014).
Entries after “also recorded” stand apart in the source; their conditions may differ.

Test system: mammalian version of LuxR in 293FT cells
Assay: 30C6HSL detection by mammalian receiver cells expressing chimeric LuxR-activator
Type: cell-based
Conditions: P65-LuxR fusion, synthetic lux promoter, exogenous 30C6HSL
Description: FIG. 2: (a) 30C6HSL synthesis by mammalian 293FT cells. Supernatant from the cells' growth media was collected and filter sterilized. Histograms show the fluorescence intensities of bacterial cells sensitive to 30C6HSL grown in the filtered supernatant, expressing green fluorescent protein due to 30C6HSL from the mammalian cells. (b) 30C6HSL detection by mammalian receiver cells. […] (c) Controlled stem cell differentiation with genetically inducible systems. Three different lentiviral genetic constructs were built, enabling exogenous chemical induction into myoblasts, adipocytes, or maintenance of stem cell properties. […] In addition, the marker protein for myoblasts, dystrophin, was expressed from these cells (data not shown). […] In a separate experiment, induced expression of Nanog supplanted the need for a growth factor usually required to maintain the overall character of mES cells.
The 30C6HSL detection pathway consists of a signal transducer that binds 30C6HSL and activates transcription of genes controlled by a synthetic lux promoter. The 30C6HSL signal transducer is a chimeric LuxR-activator protein created by the fusion of a P65 mammalian activation domain to a codon optimized mammalian version of a bacterial LuxR.

## CCCC(=O)CC(=O)N[C@H]1CCOC1=O [30C6HSL]
  response (EGFP expression) to the addition of 30C6HSL: strong response; also recorded: express EGFP only upon induction with exogenous 30C6HSL
